Laboratory results published in patent US11365204B2, “Substituted dihydrothienopyrimidines and their use as phosphodiesterase inhibitors” (UNION therapeutics A/S, priority 2017, dated 2022).

Columns and labels:
[1] = molecular target: human PDE4D catalytic domain (UniProt no. Q08499 [S380-L740]) (Homo sapiens (Human), UniProt Q08499); test: PDE4 assay (TR-FRET, cAMP hydrolysis); assay type: biochemical; settings: read-out: PDE4 IC50 range
Procedure: The human PDE4D catalytic domain (UniProt no. Q08499 [S380-L740]) was incubated with a mixture of non-labelled cAMP (cyclic adenosine monophosphate) and fluorescein amidite (FAM) conjugated cAMP and titrated test or reference compound.
Following brief incubation the enzymatic reaction was stopped by addition of binding buffer containing nanoparticles with immobilized trivalent metal ions capable of binding 1) AMP phospho groups and 2) terbium (Tb) donor fluorophores. Subsequent excitation of the Tb donor triggered time-resolved FRET to adjacent FAM acceptor molecules resulting in light emission. In the presence of a PDE4 inhibitor, AMP generation was reduced resulting in a lower fluorescence signal. The cAMP phosphodiester is not bound by the detection system.
Results were expressed as IC50 values (nM) calculated from inhibition curves where the TR-FRET signal was normalized to Tb fluorescence intensity and the negative (DMSO vehicle) and positive (10 microM a PDE4 inhibitor reference compound) controls.

[2] = test system: Human peripheral blood mononuclear cells (PBMC); test: TNF-α release from LPS-stimulated PBMC; assay type: cell-based; settings: Lipopolysaccharide 1 microg/ml, 18 hours, AlphaLISA, read-out: TNF-α IC50 range
Procedure: Human peripheral blood mononuclear cells (PBMC) were isolated from fresh buffy coats by density centrifugation using lymphoprep tubes (Medinor). Frozen PBMC's were washed in serum free assay buffer (RPMI1640 with 25 mM HEPES, 1% pen/strep, […] L glutamine, 0.5% human serum albumin) and living cells counted. Lipopolysaccharide (1 microg/ml; SIGMA) was added to the cells which were then transferred to 384 well tissue culture plates ([…]) containing titrated test compounds. The cells were incubated for 18 hours at 37° C. in serum free assay buffer and the level of TNFalpha in the supernatant was quantitated by AlphaLISA (PerkinElmer) by measuring fluorescence intensity at 615 nm.
Results were expressed as IC50 values calculated from inhibition curves using as controls the secretion in LPS stimulated wells and the secretion in cells incubated with 10 microM of a PDE4 inhibitor reference compound.

human PDE4D catalytic domain, sequence (Q08499 380-740): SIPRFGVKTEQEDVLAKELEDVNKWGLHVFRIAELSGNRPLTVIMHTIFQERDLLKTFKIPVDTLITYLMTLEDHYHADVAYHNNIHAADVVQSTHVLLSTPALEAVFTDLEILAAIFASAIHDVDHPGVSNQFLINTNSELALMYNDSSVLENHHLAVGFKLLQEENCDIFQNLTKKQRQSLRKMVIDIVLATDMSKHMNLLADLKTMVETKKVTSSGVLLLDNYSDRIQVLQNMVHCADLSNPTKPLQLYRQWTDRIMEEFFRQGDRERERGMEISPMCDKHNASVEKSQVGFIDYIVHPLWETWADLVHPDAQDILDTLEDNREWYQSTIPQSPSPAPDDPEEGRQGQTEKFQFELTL

Row | SMILES | IC50 [1] [µM] | IC50 [2] [µM]
1 | CN(C)C(=O)c1ccc(C(=O)OC2CN(c3nc4c(c(N(C)C5CCOCC5)n3)[S+](O)CC4)C2)cc1 (stereo not shown) [Example 53, [1-[4-[methyl(tetra-hydropyran-4-yl)amino]-5-oxido-6,7-dihydro-thieno[3,2-d]pyrimidin-5-ium-2-yl]azetidin-3-yl] 4-(dimethylcarbamoyl)-benzoate] | < 0.1 | < 0.1
2 | CN(c1nc(N2CC(OC(=O)c3ccc(S(=O)(=O)C4CCCC4)cc3)C2)nc2c1[S+]([O-])CC2)C1CCOCC1 (stereo not shown) [Example 62, [1-[4-[methyl(tetra-hydropyran-4-yl)amino]-5-oxido-6,7-dihydro-thieno[3,2-d]pyrimidin-5-ium-2-yl]azetidin-3-yl] 4-cyclopentylsulfonyl-benzoate] | < 0.1 | < 0.1
3 | Cc1cc(C(=O)OC2CN(c3nc4c(c(N(C)C5CCOCC5)n3)[S+](O)CC4)C2)cc(C)n1 (stereo not shown) [Example 41, [1-[4-[methyl(tetra-hydropyran-4-yl)amino]-5-oxido-6,7-dihydro-thieno[3,2-d]pyrimidin-5-ium-2-yl]azetidin-3-yl] 2,6-dimethylpyridine-4-carboxylate] | < 0.1 | < 0.1
4 | CN(c1nc(N2CC(OC(=O)c3ccns3)C2)nc2c1[S+]([O-])CC2)C1CCOCC1 (stereo not shown) [Example 22, [1-[4-[methyl(tetra-hydropyran-4-yl)amino]-5-oxido-6,7-dihydro-thieno[3,2-d]pyrimidin-5-ium-2-yl]azetidin-3-yl] isothiazole-5-carboxylate] | < 0.1 | < 0.1
5 | O=C(OC1CN(c2nc3c(c(NC4CC5(COC5)C4)n2)[S+]([O-])CC3)C1)C1CCOCC1 (stereo not shown) [Example 67, [1-[4-(6-oxaspiro[3.3]-heptan-2-ylamino)-5-oxido-6,7-dihydro-thieno[3,2-d]pyrimidin-5-ium-2-yl]azetidin-3-yl] tetrahydropyran-4-carboxylate] | < 0.1 | < 0.1
6 | CN(c1nc(N2CC(OC(=O)c3ccccc3F)C2)nc2c1[S+]([O-])CC2)C1CCOCC1 (stereo not shown) [Example 29, [1-[4-[methyl(tetra-hydropyran-4-yl)amino]-5-oxido-6,7-dihydro-thieno[3,2-d]pyrimidin-5-ium-2-yl]azetidin-3-yl] 2-fluorobenzoate] | < 0.1 | < 0.1
7 | CN(c1nc(N2CC(OC(=O)c3ccc(S(C)(=O)=O)cc3)C2)nc2c1[S+](O)CC2)C1CCOCC1 (stereo not shown) [Example 54, [1-[4-[methyl(tetra-hydropyran-4-yl)amino]-5-oxido-6,7-dihydro-thieno[3,2-d]pyrimidin-5-ium-2-yl]azetidin-3-yl] 4-methylsulfonyl-benzoate] | < 0.1 | < 0.1
8 | CC(=O)c1cccc(C(=O)OC2CN(c3nc4c(c(N(C)C5CCOCC5)n3)[S+](O)CC4)C2)c1 (stereo not shown) [Example 47, [1-[4-[methyl(tetra-hydropyran-4-yl)amino]-5-oxido-6,7-dihydro-thieno[3,2-d]pyrimidin-5-ium-2-yl]azetidin-3-yl] 3-acetylbenzoate] | < 0.1 | < 0.1
9 | CC(=O)N1CCC(Nc2nc(N3CC(OC(=O)C4CCOCC4)C3)nc3c2[S+](O)CC3)CC1 (stereo not shown) [Example 77, [1-[4-[(1-acetyl-4-piperidyl)amino]-5-oxido-6,7-dihydrothieno[3,2-d]pyrimidin-5-ium-2-yl]azetidin-3-yl] tetra-hydropyran-4-carboxylate] | 0.1 to 0.5 | 0.1 to 0.5
10 | CCn1ccc(C(=O)OC2CN(c3nc4c(c(N(C)C5CCOCC5)n3)[S+]([O-])CC4)C2)n1 (stereo not shown) [Example 30, [1-[4-[methyl(tetra-hydropyran-4-yl)amino]-5-oxido-6,7-dihydro-thieno[3,2-d]pyrimidin-5-ium-2-yl]azetidin-3-yl] 1-ethylpyrazole-3-carboxylate] | < 0.1 | < 0.1
11 | CCN(c1nc(N2CC(OC(=O)c3cscn3)C2)nc2c1[S+]([O-])CC2)C1CCOCC1 (stereo not shown) [Example 8, [1-[4-[Ethyl(tetrahydropyran-4-yl)amino]-5-oxido-6,7-dihydrothieno[3,2-d]pyrimidin-5-ium-2-yl]azetidin-3-yl] thiazole-4-carboxylate] | 0.1 to 0.5 | 0.1 to 0.5
12 | CC(=O)N1CCC(Nc2nc(N3CC(OC(=O)c4cscn4)C3)nc3c2[S+](O)CC3)CC1 (stereo not shown) [Example 76, [1-[4-[(1-acetyl-4-piperidyl)amino]-5-oxido-6,7-dihydrothieno[3,2-d]pyrimidin-5-ium-2-yl]-azetidin-3-yl] thiazole-4-carboxylate] | 0.1 to 0.5 | > 0.5
13 | O=C(OC1CN(c2nc3c(c(NC4CC5(COC5)C4)n2)[S+]([O-])CC3)C1)c1cnsc1 (racemic) [Example 65, [1-[4-(6-oxaspiro[3.3]-heptan-2-ylamino)-5-oxido-6,7-dihydrothieno-[3,2-d]pyrimidin-5-ium-2-yl]azetidin-3-yl] isothia-zole-4-carboxylate] | < 0.1 | < 0.1
14 | Cc1nc(C(=O)OC2CN(c3nc4c(c(N(C)C5CCOCC5)n3)[S+]([O-])CC4)C2)co1 (stereo not shown) [Example 20, [1-[4-[methyl(tetra-hydropyran-4-yl)amino]-5-oxido-6,7-dihydro-thieno[3,2-d]pyrimidin-5-ium-2-yl]azetidin-3-yl] 2-methyloxazole-4-carboxylate] | < 0.1 | < 0.1
15 | O=C(OC1CN(c2nc3c(c(NC4CC5(COC5)C4)n2)[S@+]([O-])CC3)C1)c1cscn1 (single isomer, unassigned) [Example 71] | 0.1 to 0.5 | > 0.5
16 | Cc1ncc(C(=O)OC2CN(c3nc4c(c(N(C)C5CCOCC5)n3)[S+]([O-])CC4)C2)cn1 (stereo not shown) [Example 27, [1-[4-[methyl(tetra-hydropyran-4-yl)amino]-5-oxido-6,7-dihydro-thieno[3,2-d]pyrimidin-5-ium-2-yl]azetidin-3-yl] 2-methylpyrimidine-5-carboxylate] | < 0.1 | < 0.1
17 | CC(=O)c1ccc(C(=O)OC2CN(c3nc4c(c(N(C)C5CCOCC5)n3)[S+](O)CC4)C2)cc1 (stereo not shown) [Example 48, [1-[4-[methyl(tetra-hydropyran-4-yl)amino]-5-oxido-6,7-dihydro-thieno[3,2-d]pyrimidin-5-ium-2-yl]azetidin-3-yl] 4-acetylbenzoate] | < 0.1 | < 0.1
18 | Cc1cccc(C(=O)OC2CN(c3nc4c(c(N(C)C5CCOCC5)n3)[S+]([O-])CC4)C2)c1 (stereo not shown) [Example 25, [1-[4-[methyl(tetra-hydropyran-4-yl)amino]-5-oxido-6,7-dihydro-thieno[3,2-d]pyrimidin-5-ium-2-yl]azetidin-3-yl] 3-methylbenzoate] | < 0.1 | < 0.1
19 | CN(c1nc(N2CC(OC(=O)c3cnsc3)C2)nc2c1[S+]([O-])CC2)C1CCOCC1 (stereo not shown) [Example 3, [1-[4-[Methyl(tetrahydropyran-4-yl)amino]-5-oxido-6,7-dihydrothieno[3,2-d]pyrimidin-5-ium-2-yl]azetidin-3-yl] isothiazole-4-carboxylate] | < 0.1 | < 0.1
20 | O=C(OC1CN(c2nc3c(c(NC4CC5(COC5)C4)n2)[S+](O)CC3)C1)c1cscn1 (stereo not shown) [Example 66, [1-[4-(6-oxaspiro[3.3]-heptan-2-ylamino)-5-oxido-6,7-dihydrothieno-[3,2-d]pyrimidin-5-ium-2-yl]azetidin-3-yl] thiazole-4-carboxylate] | < 0.1 | < 0.1
